{"source": "paper PMC7026418", "about": "“The kinase polypharmacology landscape of clinical PARP inhibitors” (Scientific Reports, 2020)", "experiment_in_all_cases": "biochemical", "parameters_in_all_cases": "DiscoveRx KINOMEscan active site-directed competition binding; percent of control kinase bound to immobilised ligand", "key": {"CDK3": {"biological_target": "CDK3 (Homo sapiens, UniProt Q00526)"}, "DRAK1": {"biological_target": "T1, DRAK1 (Homo sapiens, UniProt Q9UEE5)", "T1 construct": "gene STK17A", "T1 sequence (Q9UEE5 1-414)": "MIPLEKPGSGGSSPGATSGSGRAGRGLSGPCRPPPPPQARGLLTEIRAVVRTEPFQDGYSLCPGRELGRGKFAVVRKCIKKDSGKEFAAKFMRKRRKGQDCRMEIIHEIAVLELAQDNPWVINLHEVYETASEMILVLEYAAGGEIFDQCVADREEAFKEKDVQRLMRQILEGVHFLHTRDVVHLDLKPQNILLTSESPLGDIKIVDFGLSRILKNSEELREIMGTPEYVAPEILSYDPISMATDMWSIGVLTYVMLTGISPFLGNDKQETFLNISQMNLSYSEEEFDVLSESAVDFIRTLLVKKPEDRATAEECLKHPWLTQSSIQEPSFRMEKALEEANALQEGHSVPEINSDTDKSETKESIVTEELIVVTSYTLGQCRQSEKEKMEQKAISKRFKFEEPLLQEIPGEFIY"}, "[1]": {"biological_target": "EGFR(L747-E749del, A750P) (Homo sapiens, UniProt P00533, A750P/DEL747-749)", "sequence (P00533 with tags, fused parts or gaps DEL747-749/A750P)": "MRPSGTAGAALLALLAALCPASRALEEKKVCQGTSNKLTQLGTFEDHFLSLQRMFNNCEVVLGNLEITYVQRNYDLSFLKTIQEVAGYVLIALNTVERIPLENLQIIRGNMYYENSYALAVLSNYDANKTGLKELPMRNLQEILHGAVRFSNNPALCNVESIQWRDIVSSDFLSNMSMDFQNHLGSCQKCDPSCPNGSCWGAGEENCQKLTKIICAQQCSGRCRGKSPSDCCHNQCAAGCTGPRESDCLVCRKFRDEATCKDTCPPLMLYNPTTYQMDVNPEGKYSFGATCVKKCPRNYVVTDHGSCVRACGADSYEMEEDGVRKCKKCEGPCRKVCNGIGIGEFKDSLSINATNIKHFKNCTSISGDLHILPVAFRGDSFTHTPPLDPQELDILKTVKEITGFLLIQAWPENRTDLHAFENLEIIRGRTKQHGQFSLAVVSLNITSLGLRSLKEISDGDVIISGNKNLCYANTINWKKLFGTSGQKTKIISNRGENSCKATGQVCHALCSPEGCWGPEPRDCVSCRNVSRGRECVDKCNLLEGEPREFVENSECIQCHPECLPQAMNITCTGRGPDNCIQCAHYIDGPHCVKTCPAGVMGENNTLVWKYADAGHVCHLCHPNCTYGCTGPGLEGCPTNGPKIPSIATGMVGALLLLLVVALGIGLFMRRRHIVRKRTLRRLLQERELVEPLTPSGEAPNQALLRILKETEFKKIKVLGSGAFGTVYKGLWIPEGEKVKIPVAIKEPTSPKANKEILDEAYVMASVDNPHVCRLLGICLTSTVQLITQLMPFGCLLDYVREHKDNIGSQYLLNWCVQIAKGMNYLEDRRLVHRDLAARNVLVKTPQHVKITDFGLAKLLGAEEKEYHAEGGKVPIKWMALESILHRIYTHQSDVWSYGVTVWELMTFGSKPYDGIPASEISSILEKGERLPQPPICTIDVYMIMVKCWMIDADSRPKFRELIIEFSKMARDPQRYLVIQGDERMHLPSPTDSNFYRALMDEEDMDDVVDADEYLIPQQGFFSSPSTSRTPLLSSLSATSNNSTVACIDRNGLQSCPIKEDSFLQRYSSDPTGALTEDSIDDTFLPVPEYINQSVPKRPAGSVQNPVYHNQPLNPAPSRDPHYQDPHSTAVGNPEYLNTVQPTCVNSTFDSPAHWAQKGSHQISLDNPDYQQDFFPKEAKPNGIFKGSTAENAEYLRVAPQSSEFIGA"}, "MAP3K4": {"biological_target": "MAP3K4 (Homo sapiens, UniProt Q9Y6R4)", "sequence (Q9Y6R4 whole entry)": "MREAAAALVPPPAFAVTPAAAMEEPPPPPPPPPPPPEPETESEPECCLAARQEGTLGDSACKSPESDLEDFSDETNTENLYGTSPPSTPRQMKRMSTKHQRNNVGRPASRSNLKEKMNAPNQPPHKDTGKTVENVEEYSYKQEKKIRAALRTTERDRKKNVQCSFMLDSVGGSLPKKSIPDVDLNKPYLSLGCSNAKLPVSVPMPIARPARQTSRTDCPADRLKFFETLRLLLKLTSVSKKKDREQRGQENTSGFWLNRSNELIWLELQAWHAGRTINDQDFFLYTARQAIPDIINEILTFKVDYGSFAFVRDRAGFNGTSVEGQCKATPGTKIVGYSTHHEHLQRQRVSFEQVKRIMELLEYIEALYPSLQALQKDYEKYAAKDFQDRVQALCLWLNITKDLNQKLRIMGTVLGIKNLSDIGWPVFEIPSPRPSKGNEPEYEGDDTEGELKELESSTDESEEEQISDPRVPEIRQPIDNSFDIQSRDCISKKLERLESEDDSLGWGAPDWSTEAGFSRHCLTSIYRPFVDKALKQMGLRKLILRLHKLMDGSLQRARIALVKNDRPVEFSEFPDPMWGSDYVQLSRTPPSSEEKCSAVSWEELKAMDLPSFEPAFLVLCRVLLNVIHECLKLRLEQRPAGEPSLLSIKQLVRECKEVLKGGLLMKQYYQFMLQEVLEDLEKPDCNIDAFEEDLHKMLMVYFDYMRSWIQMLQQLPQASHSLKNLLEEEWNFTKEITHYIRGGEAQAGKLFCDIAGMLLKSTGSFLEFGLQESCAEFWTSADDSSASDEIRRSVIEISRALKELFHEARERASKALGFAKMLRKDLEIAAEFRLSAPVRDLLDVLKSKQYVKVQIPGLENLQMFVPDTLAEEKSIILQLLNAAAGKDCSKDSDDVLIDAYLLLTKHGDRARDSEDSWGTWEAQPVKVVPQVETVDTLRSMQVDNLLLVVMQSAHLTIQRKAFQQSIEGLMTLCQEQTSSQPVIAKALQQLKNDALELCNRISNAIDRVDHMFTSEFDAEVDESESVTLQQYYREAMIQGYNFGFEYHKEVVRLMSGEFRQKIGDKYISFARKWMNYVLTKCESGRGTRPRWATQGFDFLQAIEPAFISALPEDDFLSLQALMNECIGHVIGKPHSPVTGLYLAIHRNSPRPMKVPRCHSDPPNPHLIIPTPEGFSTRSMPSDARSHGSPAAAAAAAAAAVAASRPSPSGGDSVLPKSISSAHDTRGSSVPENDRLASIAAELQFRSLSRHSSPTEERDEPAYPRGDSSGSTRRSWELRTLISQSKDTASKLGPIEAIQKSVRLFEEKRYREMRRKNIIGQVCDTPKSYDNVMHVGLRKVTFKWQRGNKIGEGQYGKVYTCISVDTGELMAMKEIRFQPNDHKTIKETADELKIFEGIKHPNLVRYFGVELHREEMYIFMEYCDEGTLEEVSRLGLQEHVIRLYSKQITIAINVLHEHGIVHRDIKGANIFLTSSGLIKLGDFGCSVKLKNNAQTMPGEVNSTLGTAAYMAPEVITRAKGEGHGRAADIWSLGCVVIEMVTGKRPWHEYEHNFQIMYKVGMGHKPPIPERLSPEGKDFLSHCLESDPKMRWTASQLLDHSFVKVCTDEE"}, "[2]": {"biological_target": "T2, RSK3(Kin.Dom.2-C-terminal) (Homo sapiens, UniProt Q15349)", "T2 construct": "gene RPS6KA2; Kin.Dom.2-C-terminal"}, "TGFBR1": {"biological_target": "T3, TGFBR1 (Homo sapiens, UniProt P36897)", "T3 sequence (P36897 1-503)": "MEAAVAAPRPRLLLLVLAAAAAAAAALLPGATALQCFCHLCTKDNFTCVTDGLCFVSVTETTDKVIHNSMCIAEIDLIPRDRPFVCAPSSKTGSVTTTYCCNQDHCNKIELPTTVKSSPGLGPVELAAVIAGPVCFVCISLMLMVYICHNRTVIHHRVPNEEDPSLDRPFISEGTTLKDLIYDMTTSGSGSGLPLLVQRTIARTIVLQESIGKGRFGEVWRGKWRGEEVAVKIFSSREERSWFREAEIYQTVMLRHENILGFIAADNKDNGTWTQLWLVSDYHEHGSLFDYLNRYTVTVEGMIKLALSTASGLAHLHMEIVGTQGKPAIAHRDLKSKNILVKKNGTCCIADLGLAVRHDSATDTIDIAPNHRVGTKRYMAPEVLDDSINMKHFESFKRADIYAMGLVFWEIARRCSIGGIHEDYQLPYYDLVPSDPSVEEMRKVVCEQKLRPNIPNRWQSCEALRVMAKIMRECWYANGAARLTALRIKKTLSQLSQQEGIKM"}, "WNK2": {"biological_target": "WNK2 (Homo sapiens, UniProt Q9Y3S1)", "sequence (Q9Y3S1 whole entry)": "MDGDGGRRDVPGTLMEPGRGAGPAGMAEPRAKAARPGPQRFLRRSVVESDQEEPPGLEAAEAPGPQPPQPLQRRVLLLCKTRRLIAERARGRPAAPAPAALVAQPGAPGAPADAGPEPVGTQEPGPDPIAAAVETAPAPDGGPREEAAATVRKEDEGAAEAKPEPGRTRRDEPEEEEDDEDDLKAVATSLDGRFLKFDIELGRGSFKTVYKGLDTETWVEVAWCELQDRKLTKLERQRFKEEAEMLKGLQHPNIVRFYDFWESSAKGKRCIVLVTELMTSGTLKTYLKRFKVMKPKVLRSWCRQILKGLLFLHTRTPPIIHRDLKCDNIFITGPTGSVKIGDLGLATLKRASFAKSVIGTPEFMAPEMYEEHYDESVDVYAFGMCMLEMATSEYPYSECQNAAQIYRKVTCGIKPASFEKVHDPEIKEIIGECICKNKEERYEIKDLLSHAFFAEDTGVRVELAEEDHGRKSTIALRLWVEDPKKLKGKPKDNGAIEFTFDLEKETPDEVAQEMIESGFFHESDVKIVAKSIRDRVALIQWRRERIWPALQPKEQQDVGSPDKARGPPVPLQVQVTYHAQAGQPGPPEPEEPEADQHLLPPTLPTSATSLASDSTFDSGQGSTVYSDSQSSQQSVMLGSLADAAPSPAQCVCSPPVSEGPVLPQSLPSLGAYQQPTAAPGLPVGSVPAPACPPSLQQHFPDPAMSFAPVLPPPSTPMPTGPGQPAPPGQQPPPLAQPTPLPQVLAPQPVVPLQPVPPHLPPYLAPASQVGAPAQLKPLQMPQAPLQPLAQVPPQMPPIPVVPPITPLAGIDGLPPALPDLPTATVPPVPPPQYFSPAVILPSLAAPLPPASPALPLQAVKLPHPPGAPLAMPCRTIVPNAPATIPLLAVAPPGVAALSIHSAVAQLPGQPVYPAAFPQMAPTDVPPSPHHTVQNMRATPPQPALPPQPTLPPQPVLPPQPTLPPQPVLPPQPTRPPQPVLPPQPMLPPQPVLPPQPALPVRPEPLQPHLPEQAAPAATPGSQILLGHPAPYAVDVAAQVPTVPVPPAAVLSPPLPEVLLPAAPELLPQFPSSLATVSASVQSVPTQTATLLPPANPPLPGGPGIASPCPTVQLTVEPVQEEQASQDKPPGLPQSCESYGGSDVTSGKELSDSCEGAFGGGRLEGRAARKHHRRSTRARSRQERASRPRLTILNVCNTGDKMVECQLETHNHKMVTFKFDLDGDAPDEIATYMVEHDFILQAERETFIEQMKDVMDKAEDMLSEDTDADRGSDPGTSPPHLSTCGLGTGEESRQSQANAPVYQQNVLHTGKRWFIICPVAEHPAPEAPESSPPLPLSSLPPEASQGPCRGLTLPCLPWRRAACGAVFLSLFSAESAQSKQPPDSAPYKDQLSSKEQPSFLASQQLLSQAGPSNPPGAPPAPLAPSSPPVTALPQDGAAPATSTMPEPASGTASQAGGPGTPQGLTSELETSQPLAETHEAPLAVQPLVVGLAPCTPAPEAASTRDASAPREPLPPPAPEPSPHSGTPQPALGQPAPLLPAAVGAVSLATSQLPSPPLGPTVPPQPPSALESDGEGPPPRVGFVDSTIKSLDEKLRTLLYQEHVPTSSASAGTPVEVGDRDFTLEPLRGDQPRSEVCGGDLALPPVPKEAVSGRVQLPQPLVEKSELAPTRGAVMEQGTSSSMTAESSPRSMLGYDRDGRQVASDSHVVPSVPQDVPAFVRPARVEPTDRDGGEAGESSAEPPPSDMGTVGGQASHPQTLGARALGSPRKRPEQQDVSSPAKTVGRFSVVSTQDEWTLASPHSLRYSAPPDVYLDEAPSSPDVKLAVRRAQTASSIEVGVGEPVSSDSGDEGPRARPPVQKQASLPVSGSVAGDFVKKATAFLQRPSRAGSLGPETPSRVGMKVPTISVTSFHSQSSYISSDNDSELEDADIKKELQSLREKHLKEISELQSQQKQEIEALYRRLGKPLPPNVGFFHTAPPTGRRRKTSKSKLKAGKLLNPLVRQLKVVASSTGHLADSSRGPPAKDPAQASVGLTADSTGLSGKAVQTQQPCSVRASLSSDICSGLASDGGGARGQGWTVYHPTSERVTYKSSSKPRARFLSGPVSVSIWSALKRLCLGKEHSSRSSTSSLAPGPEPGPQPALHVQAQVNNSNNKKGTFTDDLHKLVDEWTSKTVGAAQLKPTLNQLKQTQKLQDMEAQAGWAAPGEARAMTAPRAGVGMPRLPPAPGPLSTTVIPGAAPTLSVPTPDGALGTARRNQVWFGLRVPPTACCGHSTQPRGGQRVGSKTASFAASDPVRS"}, "YANK1": {"biological_target": "T4, YANK1 (Homo sapiens, UniProt Q8WU08)", "T4 construct": "gene STK32A"}, "p38-gamma": {"biological_target": "T5, p38-gamma (Homo sapiens, UniProt P53778)", "T5 construct": "gene MAPK12", "T5 sequence (P53778 1-367)": "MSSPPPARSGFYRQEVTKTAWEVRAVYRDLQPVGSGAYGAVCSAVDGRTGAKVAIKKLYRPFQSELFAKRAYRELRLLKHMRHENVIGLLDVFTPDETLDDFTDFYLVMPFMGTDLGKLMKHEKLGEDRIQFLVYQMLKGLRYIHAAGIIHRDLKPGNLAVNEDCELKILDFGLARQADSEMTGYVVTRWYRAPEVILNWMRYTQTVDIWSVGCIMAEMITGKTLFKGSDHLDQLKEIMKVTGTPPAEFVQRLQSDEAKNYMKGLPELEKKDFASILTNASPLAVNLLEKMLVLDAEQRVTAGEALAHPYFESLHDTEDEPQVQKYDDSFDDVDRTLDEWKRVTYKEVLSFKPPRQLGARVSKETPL"}, "[3]": {"settings": "read-out: Talazoparib (BMN 673) / %Ctrl @ 10000nM"}, "[4]": {"settings": "read-out: Olaparib / %Ctrl @ 10000nM"}, "[5]": {"settings": "read-out: Niraparib (MK-4827) / %Ctrl @ 10000nM"}, "[6]": {"settings": "read-out: Rucaparib / %Ctrl @ 10000nM, binding competition, % of control"}}, "note": "Like-named read-outs stand apart in the source and are kept apart here."}
{"smiles": "Cn1ncnc1[C@H]1c2n[nH]c(=O)c3cc(F)cc(c23)N[C@@H]1c1ccc(F)cc1", "note": "[Talazoparib]", "values": [{"measurement": "percent of control binding at 10 µM", "setting": "CDK3; [3]", "value": 100, "unit": "%"}, {"measurement": "percent of control binding at 10 µM", "setting": "DRAK1; [3]", "value": 100, "unit": "%"}, {"measurement": "percent of control binding at 10 µM", "setting": "[1]; [3]", "value": 96, "unit": "%"}, {"measurement": "percent of control binding at 10 µM", "setting": "MAP3K4; [3]", "value": 90, "unit": "%"}, {"measurement": "percent of control binding at 10 µM", "setting": "[2]; [3]", "value": 100, "unit": "%"}, {"measurement": "percent of control binding at 10 µM", "setting": "TGFBR1; [3]", "value": 100, "unit": "%"}, {"measurement": "percent of control binding at 10 µM", "setting": "WNK2; [3]", "value": 100, "unit": "%"}, {"measurement": "percent of control binding at 10 µM", "setting": "YANK1; [3]", "value": 100, "unit": "%"}, {"measurement": "percent of control binding at 10 µM", "setting": "p38-gamma; [3]", "value": 60, "unit": "%"}]}
{"smiles": "O=C(c1cc(Cc2n[nH]c(=O)c3ccccc23)ccc1F)N1CCN(C(=O)C2CC2)CC1", "note": "[Olaparib]", "values": [{"measurement": "percent of control binding at 10 µM", "setting": "CDK3; [4]", "value": 100, "unit": "%"}, {"measurement": "percent of control binding at 10 µM", "setting": "DRAK1; [4]", "value": 95, "unit": "%"}, {"measurement": "percent of control binding at 10 µM", "setting": "[1]; [4]", "value": 82, "unit": "%"}, {"measurement": "percent of control binding at 10 µM", "setting": "MAP3K4; [4]", "value": 100, "unit": "%"}, {"measurement": "percent of control binding at 10 µM", "setting": "[2]; [4]", "value": 70, "unit": "%"}, {"measurement": "percent of control binding at 10 µM", "setting": "TGFBR1; [4]", "value": 93, "unit": "%"}, {"measurement": "percent of control binding at 10 µM", "setting": "WNK2; [4]", "value": 76, "unit": "%"}, {"measurement": "percent of control binding at 10 µM", "setting": "YANK1; [4]", "value": 86, "unit": "%"}, {"measurement": "percent of control binding at 10 µM", "setting": "p38-gamma; [4]", "value": 83, "unit": "%"}]}
{"smiles": "NC(=O)c1cccc2cn(-c3ccc([C@@H]4CCCNC4)cc3)nc12", "note": "[Niraparib]", "values": [{"measurement": "percent of control binding at 10 µM", "setting": "CDK3; [5]", "value": 95, "unit": "%"}, {"measurement": "percent of control binding at 10 µM", "setting": "DRAK1; [5]", "value": 26, "unit": "%"}, {"measurement": "percent of control binding at 10 µM", "setting": "[1]; [5]", "value": 65, "unit": "%"}, {"measurement": "percent of control binding at 10 µM", "setting": "MAP3K4; [5]", "value": 94, "unit": "%"}, {"measurement": "percent of control binding at 10 µM", "setting": "[2]; [5]", "value": 93, "unit": "%"}, {"measurement": "percent of control binding at 10 µM", "setting": "TGFBR1; [5]", "value": 98, "unit": "%"}, {"measurement": "percent of control binding at 10 µM", "setting": "WNK2; [5]", "value": 100, "unit": "%"}, {"measurement": "percent of control binding at 10 µM", "setting": "YANK1; [5]", "value": 99, "unit": "%"}, {"measurement": "percent of control binding at 10 µM", "setting": "p38-gamma; [5]", "value": 48, "unit": "%"}]}
{"smiles": "CNCc1ccc(-c2[nH]c3cc(F)cc4c3c2CCNC4=O)cc1", "note": "[Rucaparib]", "values": [{"measurement": "percent of control binding at 10 µM", "setting": "CDK3; [6]", "value": 94, "unit": "%"}, {"measurement": "percent of control binding at 10 µM", "setting": "DRAK1; [6]", "value": 14, "unit": "%"}, {"measurement": "percent of control binding at 10 µM", "setting": "[1]; [6]", "value": 98, "unit": "%"}, {"measurement": "percent of control binding at 10 µM", "setting": "MAP3K4; [6]", "value": 100, "unit": "%"}, {"measurement": "percent of control binding at 10 µM", "setting": "[2]; [6]", "value": 67, "unit": "%"}, {"measurement": "percent of control binding at 10 µM", "setting": "TGFBR1; [6]", "value": 98, "unit": "%"}, {"measurement": "percent of control binding at 10 µM", "setting": "WNK2; [6]", "value": 66, "unit": "%"}, {"measurement": "percent of control binding at 10 µM", "setting": "YANK1; [6]", "value": 69, "unit": "%"}, {"measurement": "percent of control binding at 10 µM", "setting": "p38-gamma; [6]", "value": 58, "unit": "%"}]}
